{
  "source": "paper PMC4807435",
  "about": "(CPT: Pharmacometrics & Systems Pharmacology, 2016)",
  "key": {"LPV intrinsic clearance [1]": {"test_system": "LPV intrinsic clearance", "settings": "same interaction function form; ref Wang et al., 32; cited from earlier work"}, "[2]": {"experiment": "Population PK model of unbound and total LPV/RTV in HIV-infected pregnant women", "assay_type": "in vivo, human", "settings": "for Total body clearance CL/F, back-calculated, median (range): intrinsic clearance × unbound fraction"}, "LPV intrinsic clearance [3]": {"test_system": "LPV intrinsic clearance", "experiment": "LPV-RTV interaction modeling", "assay_type": "in vivo, human"}, "[4]": {"settings": "2nd trimester vs. pp; capsules; ref Mirochnick et al., JAIDS, 2008 (9); cited from earlier work"}, "[5]": {"settings": "final model, 500 bootstrap replicates"}, "[6]": {"settings": "final model, 500 bootstrap replicates, weight-scaled model (per 70kg)"}},
  "data": [
    {"molecule": "CC(C)c1nc(CN(C)C(=O)N[C@H](C(=O)N[C@@H](Cc2ccccc2)C[C@H](O)[C@H](Cc2ccccc2)NC(=O)OCc2cncs2)C(C)C)cs1", "note": "[RTV, ritonavir]", "values": [
      {"measurement": "Interaction value (LPV-RTV interaction coefficient)", "setting": "LPV intrinsic clearance [1]", "result": 0.00064},
      {"measurement": "Apparent intrinsic clearance CLu/F, post hoc estimate, median (range)", "setting": "[2]; Visit 1 (20–24 weeks)", "result": "273 (161, 421) L/hr"},
      {"measurement": "Total body clearance CL/F, back-calculated, median (range)", "setting": "[2]; Visit 1 (20–24 weeks)", "result": "38.2 (26.0, 42.1) L/hr"},
      {"measurement": "Total body clearance CL/F, back-calculated, median (range)", "setting": "[2]; Visit 2 (30 weeks)", "result": "52.3 (33.6, 74.1) L/hr"},
      {"measurement": "Apparent intrinsic clearance CLu/F, post hoc estimate, median (range)", "setting": "[2]; Visit 3 (32 weeks)", "result": "357 (191, 508) L/hr"},
      {"measurement": "Total body clearance CL/F, back-calculated, median (range)", "setting": "[2]; Visit 3 (32 weeks)", "result": "58.5 (32.6, 93.6) L/hr"},
      {"measurement": "Apparent intrinsic clearance CLu/F, post hoc estimate, median (range)", "setting": "[2]; Visit 4 (8 weeks postpartum)", "result": "178 (101, 257) L/hr"},
      {"measurement": "Total body clearance CL/F, back-calculated, median (range)", "setting": "[2]; Visit 4 (8 weeks postpartum)", "result": "26.9 (16.6, 37.5) L/hr"},
      {"measurement": "Interindividual variability of CLu/F, bootstrap estimates (95% CI)", "setting": "[2]; final model", "result": "10.6 (1.92, 19.0) %CV"},
      {"measurement": "Interindividual variability of CLu/F, estimate", "setting": "[2]; final model", "result": 8.5, "unit": "%CV"},
      {"measurement": "Interindividual variability of fu, bootstrap estimates (95% CI)", "setting": "[2]; final model", "result": "23.3 (12.2, 34.4) %CV"},
      {"measurement": "Interindividual variability of fu, estimate", "setting": "[2]; final model", "result": 24.4, "unit": "%CV"},
      {"measurement": "Interoccasion variability of F, bootstrap estimates (95% CI)", "setting": "[2]; final model", "result": "30.9 (17.1, 46.1) %CV"},
      {"measurement": "Interoccasion variability of F, estimate", "setting": "[2]; final model", "result": 36.2, "unit": "%CV"},
      {"measurement": "Interoccasion variability of fu, bootstrap estimates (95% CI)", "setting": "[2]; final model", "result": "20.8 (12.6, 28.6) %CV"},
      {"measurement": "Interoccasion variability of fu, estimate", "setting": "[2]; final model", "result": 23.5, "unit": "%CV"},
      {"measurement": "Interoccasion variability of ka, bootstrap estimates (95% CI)", "setting": "[2]; final model", "result": "142 (81.5, 201) %CV"},
      {"measurement": "Interoccasion variability of ka, estimate", "setting": "[2]; final model", "result": 141.8, "unit": "%CV"},
      {"measurement": "Lag time, estimate", "setting": "[2]; final model", "result": 1.86, "unit": "h"},
      {"measurement": "ka, estimate", "setting": "[2]; final model", "result": 1.01, "unit": "h⁻¹"},
      {"measurement": "Lag time, bootstrap estimates (95% CI)", "setting": "[2]; [5]", "result": "1.86 (1.67, 1.94) h"},
      {"measurement": "ka, bootstrap estimates (95% CI)", "setting": "[2]; [5]", "result": "1.01 (0.340, 2.00) h^−1"},
      {"measurement": "CLu/F, bootstrap estimates (95% CI)", "setting": "[2]; [6]", "result": "157 (120, 202) L/h"},
      {"measurement": "Vu/F, bootstrap estimates (95% CI)", "setting": "[2]; [6]", "result": "1630 (1040, 2100) L"},
      {"measurement": "Interaction parameter (coef)", "setting": "LPV intrinsic clearance [3]; Model 6, CRTV exponential model, unbound RTV concentration", "result": 0.0028},
      {"measurement": "Interaction coefficient in terms of total RTV concentration", "setting": "LPV intrinsic clearance [3]; exponential interaction function", "result": 0.00041}
    ]},
    {"molecule": "Cc1cccc(C)c1OCC(=O)N[C@@H](Cc1ccccc1)[C@@H](O)C[C@H](Cc1ccccc1)NC(=O)[C@H](C(C)C)N1CCCNC1=O", "note": "[LPV, lopinavir]", "values": [
      {"measurement": "Increase of median post hoc CLu/F compared to 8 weeks postpartum", "setting": "[2]; 20–24 weeks of gestation (22 weeks elsewhere in the source)", "result": 38, "unit": "%"},
      {"measurement": "Increase of median post hoc CLu/F compared to 8 weeks postpartum", "setting": "[2]; 30 weeks of gestation", "result": 56, "unit": "%"},
      {"measurement": "Increase of median post hoc CLu/F compared to 8 weeks postpartum", "setting": "[2]; 32 weeks of gestation", "result": 61, "unit": "%"},
      {"measurement": "CL/F, estimate", "setting": "[2]; CL/F = fu × CLu/F", "result": 4.31, "unit": "L/h"},
      {"measurement": "V/F, estimate", "setting": "[2]; V/F = fu × Vu/F", "result": 88.5, "unit": "L"},
      {"measurement": "Apparent intrinsic clearance CLu/F, post hoc estimate, median (range)", "setting": "[2]; Visit 1 (20–24 weeks)", "result": "232 (226, 237) L/hr"},
      {"measurement": "Total body clearance CL/F, back-calculated, median (range)", "setting": "[2]; Visit 1 (20–24 weeks)", "result": "5.92 (5.22, 7.22) L/hr"},
      {"measurement": "Apparent intrinsic clearance CLu/F, post hoc estimate, median (range)", "setting": "[2]; Visit 2 (30 weeks)", "result": "261 (255, 264) L/hr"},
      {"measurement": "Total body clearance CL/F, back-calculated, median (range)", "setting": "[2]; Visit 2 (30 weeks)", "result": "6.69 (5.73, 8.21) L/hr"},
      {"measurement": "Apparent intrinsic clearance CLu/F, post hoc estimate, median (range)", "setting": "[2]; Visit 3 (32 weeks)", "result": "269 (263, 276) L/hr"},
      {"measurement": "Total body clearance CL/F, back-calculated, median (range)", "setting": "[2]; Visit 3 (32 weeks)", "result": "6.94 (5.90, 8.46) L/hr"},
      {"measurement": "Apparent intrinsic clearance CLu/F, post hoc estimate, median (range)", "setting": "[2]; Visit 4 (8 weeks postpartum)", "result": "167 (165, 168) L/hr"},
      {"measurement": "Total body clearance CL/F, back-calculated, median (range)", "setting": "[2]; Visit 4 (8 weeks postpartum)", "result": "4.28 (3.65, 5.25) L/hr"},
      {"measurement": "fraction unbound", "setting": "[2]; female, human, plasma, oral, fu, estimate, final model, unbound fraction", "result": 0.0258},
      {"measurement": "Interindividual variability of CLu/F, bootstrap estimates (95% CI)", "setting": "[2]; final model", "result": "2.10 (0.32, 11.4) %CV"},
      {"measurement": "Interindividual variability of CLu/F, estimate", "setting": "[2]; final model", "result": 2.70, "unit": "%CV"},
      {"measurement": "Interindividual variability of fu, bootstrap estimates (95% CI)", "setting": "[2]; final model", "result": "3.81 (0.32, 10.3) %CV"},
      {"measurement": "Interindividual variability of fu, estimate", "setting": "[2]; final model", "result": 4.60, "unit": "%CV"},
      {"measurement": "Interoccasion variability of CLu/F, bootstrap estimates (95% CI)", "setting": "[2]; final model", "result": "23.4 (16.1, 29.7) %CV"},
      {"measurement": "Interoccasion variability of CLu/F, estimate", "setting": "[2]; final model", "result": 24.7, "unit": "%CV"},
      {"measurement": "Interoccasion variability of fu, bootstrap estimates (95% CI)", "setting": "[2]; final model", "result": "9.98 (4.68, 13.3) %CV"},
      {"measurement": "Interoccasion variability of fu, estimate", "setting": "[2]; final model", "result": 10.0, "unit": "%CV"},
      {"measurement": "Interoccasion variability of ka, estimate", "setting": "[2]; final model", "result": 138, "unit": "%CV"},
      {"measurement": "Lag time, estimate", "setting": "[2]; final model", "result": 1.77, "unit": "h"},
      {"measurement": "Vu/F, estimate", "setting": "[2]; final model", "result": 3430, "unit": "L"},
      {"measurement": "ka, estimate", "setting": "[2]; final model", "result": 1.07, "unit": "h⁻¹"},
      {"measurement": "CLu/F, bootstrap estimates (95% CI)", "setting": "[2]; [5]", "result": "167 (136, 202) L/h"},
      {"measurement": "Coefficient of gestational week impact on CLu/F, bootstrap estimates (95% CI)", "setting": "[2]; [5]", "result": "0.0148 (0.00835, 0.0223)"},
      {"measurement": "Lag time, bootstrap estimates (95% CI)", "setting": "[2]; [5]", "result": "1.75 (1.25, 1.93) h"},
      {"measurement": "Vu/F, bootstrap estimates (95% CI)", "setting": "[2]; [5]", "result": "3325 (2655, 4256) L"},
      {"measurement": "ka, bootstrap estimates (95% CI)", "setting": "[2]; [5]", "result": "0.906 (0.582, 1.78) h^−1"},
      {"measurement": "CLu/F, estimate", "setting": "[2]; final model, population value at gestational week zero (postpartum reference)", "result": 167, "unit": "L/h"},
      {"measurement": "Coefficient of gestational week impact on CLu/F, estimate", "setting": "[2]; individual final model, CLu/F = θ × e^(coef×WEEK)", "result": 0.0148},
      {"measurement": "Unbound fraction, pregnancy vs postpartum", "setting": "[2]; population PK covariate analysis", "result": "not significantly different"},
      {"measurement": "Difference among unbound AUC fractions across the four study visits", "setting": "[2]; post hoc repeated-measures ANOVA, P > 0.05", "result": "no significant findings"},
      {"measurement": "Decrease in AUC", "setting": "[4]", "result": 52, "unit": "%"},
      {"measurement": "LPV clearance estimate (CLu/F)", "setting": "LPV intrinsic clearance [3]; Basic joint model: LPV and RTV individual final models without interactions", "result": 167, "unit": "L/h"}
    ]}
  ]
}
